The structures appear in SMILES notation. Where “and” joins values, the source holds several entries; their conditions need not be identical. Equal values may be shown once. Inconclusive results and toxic doses are left out.

For this experiment, the system named is P388 leukemia ip, CD2F1 mice, survival T/C. As to the kind of experiment: NCI In Vivo Anticancer Drug Screen. Data for tumor model P388 Leukemia (intraperitoneal) in CD2F1 (CDF1) mice. Particulars: endpoint: median survival time, higher = longer survival. An outline of the steps: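 Mice carrying the transplanted tumor received test compound or vehicle. Survival was recorded in each group, and the value is the treated-group measurement divided by that of the vehicle-treated control group.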

The mark [1] stands for this setting: dose: 50.0 mg/kg/injection, schedule: Q01DX009 (ip), vehicle: Klucel (hydroxypropylcellulose) (HPC).
The mark [2] stands for this setting: dose: 100.0 mg/kg/injection, schedule: Q01DX009 (ip), vehicle: Klucel (hydroxypropylcellulose) (HPC).
Where [3] appears, read: dose: 200.0 mg/kg/injection, schedule: Q01DX009 (ip), vehicle: Klucel (hydroxypropylcellulose) (HPC).
[4] abbreviates: dose: 60.0 mg/kg/injection, schedule: Q01DX005 (ip), vehicle: saline.
Setting [5] is: dose: 120.0 mg/kg/injection, schedule: Q01DX005 (ip), vehicle: saline.
[6] abbreviates: dose: 240.0 mg/kg/injection, schedule: Q01DX005 (ip), vehicle: saline.
The mark [7] stands for this setting: dose: 50.0 mg/kg/injection, schedule: Q01DX005 (ip), vehicle: saline with Tween-80.
Where [8] appears, read: dose: 100.0 mg/kg/injection, schedule: Q01DX005 (ip), vehicle: saline with Tween-80.
[9] abbreviates: dose: 200.0 mg/kg/injection, schedule: Q01DX005 (ip), vehicle: saline with Tween-80.
The mark [10] stands for this setting: dose: 25.0 mg/kg/injection, schedule: Q01DX009 (ip), vehicle: saline.
Where [11] appears, read: dose: 50.0 mg/kg/injection, schedule: Q01DX009 (ip), vehicle: saline.
The mark [12] stands for this setting: dose: 100.0 mg/kg/injection, schedule: Q01DX009 (ip), vehicle: saline.
[13] abbreviates: dose: 50.0 mg/kg/injection, schedule: Q01DX009 (ip), vehicle: saline with Tween-80.
Where [14] appears, read: dose: 100.0 mg/kg/injection, schedule: Q01DX009 (ip), vehicle: saline with Tween-80.
The mark [15] stands for this setting: dose: 200.0 mg/kg/injection, schedule: Q01DX009 (ip), vehicle: saline.
Where [16] appears, read: dose: 60.0 mg/kg/injection, schedule: Q01DX005 (ip), vehicle: Klucel (hydroxypropylcellulose) (HPC).

For `Cc1cc(=O)n2c(c1)[nH]c1ccccc12`, the T/C reads like this: (dose: 100.0 mg/kg/injection, schedule: Q01DX001 (ip), vehicle: Klucel (hydroxypropylcellulose) (HPC)) 89 % of control; (dose: 200.0 mg/kg/injection, schedule: Q01DX001 (ip), vehicle: Klucel (hydroxypropylcellulose) (HPC)) 90 % of control; (dose: 400.0 mg/kg/injection, schedule: Q01DX001 (ip), vehicle: Klucel (hydroxypropylcellulose) (HPC)) 88 % of control.
Regarding `CN(C)NC(=O)c1ccc(C(=O)NN(C)C)cc1`, the T/C was 108 % of control under setting [1], 108 % of control under setting [2] and 113 % of control under setting [3].
Take `Cc1ccc2ccc3ccc(CBr)nc3c2n1`: the T/C (dose: 3.12 micromoles/kg, schedule: Q01DX005 (ip), vehicle: other) is 110 % of control; the T/C (dose: 6.25 micromoles/kg, schedule: Q01DX005 (ip), vehicle: other) is 99 % of control; the T/C (dose: 12.0 micromoles/kg, schedule: Q01DX005 (ip), vehicle: other) is 111 % of control.
Regarding `CC(N)(CCS(=O)(=O)CP(=O)(O)O)C(=O)O` (configuration not stated), the T/C is 103 % of control under setting [4], 97 % of control under setting [5] and 93 % of control under setting [6].
Consider `NCCSC(C[N+](=O)[O-])c1ccc2c(c1)OCO2` (configuration not stated), for which the T/C (dose: 12.5 mg/kg/injection, schedule: Q01DX009 (ip), vehicle: saline with Tween-80) is 119 % of control and the T/C (dose: 25.0 mg/kg/injection, schedule: Q01DX009 (ip), vehicle: saline with Tween-80) was 124 % of control.
With `O=C1CS(=O)(=O)C(c2ccc(Cl)cc2)N1N1C(=O)CS(=O)(=O)C1c1ccc(Cl)cc1` (configuration not stated), the T/C (dose: 25.0 mg/kg/injection, schedule: Q01DX005 (ip), vehicle: saline with Tween-80) is 98 % of control and 109 % of control; the T/C under setting [7] is 95 % of control and 96 % of control; the T/C under setting [8] was 87 % of control and 95 % of control.
As to `N#Cc1ccc(C(N)=O)c(C(N)=O)c1`, the T/C under setting [7] is 98 % of control, the T/C under setting [8] was 102 % of control and the T/C under setting [9] is 93 % of control.
For the molecule `CCCOC(CN(C)C)C(Cl)(Cl)Cl` (configuration not stated), the T/C is 101 % of control under setting [1], 104 % of control under setting [2] and 100 % of control under setting [3].
For `CCCCCCCCCCCCCCCC[N+](C)(C)CC#N`, the T/C reads like this: (dose: 12.5 mg/kg/injection, schedule: Q01DX009 (ip), vehicle: saline) 100 % of control; under setting [10], 89 % of control.
For `CC(=O)c1ccc(NN=NCCF)cc1`, the T/C reads like this: (dose: 1.56 mg/kg/injection, schedule: Q01DX009 (ip), vehicle: water) 107 % of control; (dose: 6.25 mg/kg/injection, schedule: Q01DX009 (ip), vehicle: water) 154 % of control; (dose: 12.5 mg/kg/injection, schedule: Q01DX009 (ip), vehicle: distilled water + Tween-80) 271 % of control.
With `CN(C)/N=C/c1c[nH]c2ccccc12`, the T/C is 105 % of control (dose: 6.25 mg/kg/injection, schedule: Q01DX009 (ip), vehicle: Klucel (hydroxypropylcellulose) (HPC)); 103 % of control (dose: 12.5 mg/kg/injection, schedule: Q01DX009 (ip), vehicle: Klucel (hydroxypropylcellulose) (HPC)); 100 % of control (dose: 25.0 mg/kg/injection, schedule: Q01DX009 (ip), vehicle: Klucel (hydroxypropylcellulose) (HPC)); 118 % of control under setting [1]; 111 % of control under setting [2].
On to `CC(O)CNC1c2ccccc2CC1O` (configuration not stated), for which the T/C was 108 % of control under setting [10], 100 % of control under setting [11] and 100 % of control under setting [12].
In the case of `O=C1C(C(=Nc2cccc(Cl)c2)c2ccccc2)=C(O)c2ccccc21`, the T/C reads like this: (dose: 25.0 mg/kg/injection, schedule: Q04DX002 (ip), vehicle: saline with Tween-80) 93 % of control; (dose: 50.0 mg/kg/injection, schedule: Q04DX002 (ip), vehicle: saline with Tween-80) 95 % of control.
For the molecule `CC(C)C[C@H]1C(=O)N2CCC[C@H]2[C@]2(O)O[C@](NC(=O)[C@@H]3C=C4c5cccc6[nH]c(Br)c(c56)C[C@H]4N(C)C3)(C(C)C)C(=O)N12`, the T/C was 100 % of control under setting [13]; 100 % of control under setting [14]; 100 % of control (dose: 200.0 mg/kg/injection, schedule: Q01DX009 (ip), vehicle: saline with Tween-80).
Consider `NC(Cc1ccc(OC2c3ccccc3-c3ccccc32)cc1)C(=O)O` (configuration not stated), for which the T/C runs as follows: under setting [11], 100 % of control; under setting [12], 91 % of control; under setting [15], 87 % of control.
`O=Cc1cccc(OC(=O)Oc2cccc(C=O)c2)c1`: the T/C (dose: 100.0 mg/kg/injection, schedule: Q01DX001 (ip), vehicle: saline with Tween-80) was 101 % of control; the T/C (dose: 200.0 mg/kg/injection, schedule: Q01DX001 (ip), vehicle: saline with Tween-80) was 99 % of control; the T/C (dose: 400.0 mg/kg/injection, schedule: Q01DX001 (ip), vehicle: saline with Tween-80) is 104 % of control.
`COc1cc2c(cc1OC)C1C(O)C(OC)C(O)C3=CCN(C2)C31` (configuration not stated): the T/C is 100 % of control under setting [11], 104 % of control under setting [12] and 102 % of control under setting [15].
On to `O=S(=O)(O)c1ccc(OCCCCCCCCCCOc2ccc(S(=O)(=O)O)cc2)cc1`, for which the T/C was 105 % of control under setting [4], 102 % of control under setting [5] and 98 % of control under setting [6].
Take `COCC/C=C\CN(C(C)C)C(C)C`: the T/C was 99 % of control under setting [13] and 101 % of control under setting [14].
Take `C=C(C)C1Cc2c(ccc3c(=O)c4c(oc23)c(=O)oc2cc(OC)c(OC)cc24)O1` (configuration not stated): the T/C runs as follows: (dose: 100.0 mg/kg/injection, schedule: Q04DX003 (ip), vehicle: saline with Tween-80) 103 % of control; (dose: 200.0 mg/kg/injection, schedule: Q04DX003 (ip), vehicle: saline with Tween-80) 98 % of control; (dose: 400.0 mg/kg/injection, schedule: Q04DX003 (ip), vehicle: saline with Tween-80) 105 % of control.
On to `Cc1cccc(-n2c(C)nc3[nH]cc(C)c3c2=N)c1`, for which the T/C (dose: 50.0 mg/kg/injection, schedule: Q01DX005 (ip), vehicle: Klucel (hydroxypropylcellulose) (HPC)) was 99 % of control and the T/C (dose: 100.0 mg/kg/injection, schedule: Q01DX005 (ip), vehicle: Klucel (hydroxypropylcellulose) (HPC)) is 105 % of control.
On to `O=[N+]([O-])c1ccccc1S(=O)(=O)N(CCCCCN(S(=O)(=O)c1ccccc1[N+](=O)[O-])S(=O)(=O)c1ccccc1[N+](=O)[O-])S(=O)(=O)c1ccccc1[N+](=O)[O-]`, for which the T/C is 89 % of control under setting [16]; 87 % of control (dose: 120.0 mg/kg/injection, schedule: Q01DX005 (ip), vehicle: Klucel (hydroxypropylcellulose) (HPC)); 87 % of control (dose: 240.0 mg/kg/injection, schedule: Q01DX005 (ip), vehicle: Klucel (hydroxypropylcellulose) (HPC)).
Regarding `C[Si](C)(C)CCCn1cc(F)c(=O)n(CCC[Si](C)(C)C)c1=O`, the T/C by setting is: (dose: 60.0 mg/kg/injection, schedule: Q01DX005 (ip), vehicle: saline with Tween-80) 104 % of control; (dose: 120.0 mg/kg/injection, schedule: Q01DX005 (ip), vehicle: saline with Tween-80) 104 % of control; (dose: 240.0 mg/kg/injection, schedule: Q01DX005 (ip), vehicle: saline with Tween-80) 101 % of control.
With `Cc1ccc(Cl)cc1NC(=O)OCCN(C)C(=O)Nc1cc(Cl)ccc1C`, the T/C is 98 % of control (dose: 15.0 mg/kg/injection, schedule: Q01DX005 (ip), vehicle: Klucel (hydroxypropylcellulose) (HPC)); 90 % of control (dose: 30.0 mg/kg/injection, schedule: Q01DX005 (ip), vehicle: Klucel (hydroxypropylcellulose) (HPC)); 96 % of control under setting [16].
Take `CC[Si](CC)(CC)OC(C#N)c1ccc2c(c1)OCO2` (configuration not stated): the T/C is, setting by setting: under setting [7], 104 % of control; under setting [8], 104 % of control; under setting [9], 100 % of control.
